Measurements taken from patent US9238626B2 (priority 2012, dated 2016).
Counter-ions that a name gives are not always drawn.

Experiments:
APP-PS1 mice [1] = experiment: Neuroinflammation (astrogliosis, anti-GFAP immunostaining) in APP-PS1 mice; format: in vivo, mouse
APP-PS1 mice [2] = experiment: Senile plaques in APP-PS1 mice (Thioflavin-S staining); format: in vivo, mouse
[3] = tested on: hippocampal slices treated with Aβ oligomers; experiment: Synaptic protein levels of hippocampal slices in the presence of Aβ oligomers (western blot); format: cell-based, C57bl6 mice; conditions: co-treatment with Aβ oligomers, 1 h
Method: The hippocampus of treated or control transgenic mice were dissected on ice and immediately frozen at −150° C. or processed. Briefly, hippocampal tissue were homogenized in RIPA buffer (50 mM Tris-Cl, pH 7.5, 150 mM NaCl, 1% NP-40, 0.5% sodium deoxycholate, and 1% SDS) supplemented with a protease inhibitor cocktail (Sigma-Aldrich P8340) and phosphatase inhibitors (50 mM NaF, 1 mM Na3VO4 and 30 μM Na4P207) using a Potter homogenizator and then passed sequentially through different caliber syringes. Protein samples were centrifuged at 14000 rpm at 4° C. twice for 10 min. Protein concentration was determined using the BCA Protein Assay Kit (Pierce Biotechnology, Rockford, Ill.). 20 and 40 micrograms of hippocampal samples were resolved by 10% SDS-PAGE, transferred to a PVDF membrane. The reactions were followed by incubation with primary antibodies, secondary antibodies anti-mouse, anti-goat or anti-rabbit IgG peroxidase conjugated (Pierce) and developed using an ECL kit (Western Lightning Plus ECL, Perkin Elmer).
In slices co-treated with (−)-(Ib) (FIG. 4A), the neuroprotective effect of the compound was observed.

[4] = 7-month-old APP-PS1 mice, FIG. 9A
[5] = 11-month-old APP-PS1 mice, FIG. 9B
[6] = 7-month-old APP-PS1 mice, FIG. 8
[7] = 11-month-old APP-PS1 mice, FIG. 8B

| SMILES | area occupied by hyper-reactive astrocytes (GFAP), inflammatory response (APP-PS1 mice [1]; [4]) | area occupied by hyper-reactive astrocytes (GFAP), inflammatory response (APP-PS1 mice [1]; [5]) | Th-S amyloid aggregates, hippocampal region (APP-PS1 mice [2]; [6]) | Th-S positive area, cortex (APP-PS1 mice [2]; [6]) | Th-S amyloid deposits, cortex (APP-PS1 mice [2]; [7]) | Th-S amyloid deposits, hippocampus (APP-PS1 mice [2]; [7]) | GluA2 protein level [3] | PSD95 protein level [3] | SYN protein level [3] | VGlut1 protein level [3] | synaptophysin (SYP) protein level [3] |
| --- | --- | --- | --- | --- | --- | --- | --- | --- | --- | --- | --- |
| CC1=C[C@H]2Cc3nc4cc(Cl)ccc4c(NCCCCCCCCCNC(=O)c4cc(O)c5c(c4)C(=O)c4cccc(O)c4C5=O)c3[C@@H](C1)C2 [(+)-(Ib)•HCl, (+)-(7R,11R)—N-{9-[(3-chloro-6,7,10,11-tetrahydro-9-methyl-7,11-methanocycloocta[b]quinolin-12-yl)amino]nonyl}-9,10-dihydro-4,5-dihydroxy-9,10-dioxoanthracene-2-carboxamide] | decrease in the inflammatory response | decrease in the inflammatory response | reduction in the amyloid aggregates | significant reduction in the Th-S positive area | reduction in amyloid deposits | reduction in amyloid deposits | increased levels of total protein with every concentration used | increased levels of total protein with every concentration used | increased levels of total protein with every concentration used | no changes | no changes |
| CC1=C[C@@H]2Cc3nc4cc(Cl)ccc4c(NCCCCCCCCCNC(=O)c4cc(O)c5c(c4)C(=O)c4cccc(O)c4C5=O)c3[C@H](C1)C2 [(−)-(Ib)•HCl, (−)-(7S,11S)—N-{9-[(3-chloro-6,7,10,11-tetrahydro-9-methyl-7,11-methanocycloocta[b]quinolin-12-yl)amino]nonyl}-9,10-dihydro-4,5-dihydroxy-9,10-dioxoanthracene-2-carboxamide] | decrease in the inflammatory response | decrease in the inflammatory response | – | significant reduction in the Th-S positive area | – | – | evident effect at 10 and 100 μM | evident effect at 10 and 100 μM | – | increment for every concentration | no effects were observed |
